In assay [1] the test system is PR target genes (FASN, cyclin A, BCL2, ALPL). The assay is described as follows: qRT-PCR mRNA expression of PR target genes in HBE cells. It is filed as cell-based, human. How it is done:
(§1) After seeding, cells were cultured for 24 h in serum and phenol red free medium. Then treatments were carried out in a phenol red free medium containing 5% dextran-charcoal stripped serum. Cells were treated with P or DEX (100 nM), alone or in combination with UPA, RU (1 nM to 1 μM) or CDB-3877 (100 nM). Control cells were treated with ethanol, at […] 1:1000 final ethanol concentration alone as vehicle or E2 (10 nM).
(§2) Total RNA was extracted using TriZOL Reagent (Invitrogen, Cergy-Pontoise, France).
(§3) 2 μg of total RNA was subjected to reverse transcription (RT) using random primers for 1 h at 37° C. 2 μl of RT product was diluted (1:10) and subjected to quantitative PCR using sequence specific primers (300 nM) and Brillant SYBR GREEN QPCR master mix (Fermentas, Saint-Rémy-lès-Chevreuse, France) on an Mx3000P apparatus (Agilent Technologies, Massy, France). Conditions were 1 cycle at 95° C. for 10 min followed by 40 cycles at 95° C. for 30 sec, 60° C. for 1 min and 72° C. for 30 sec. Gene expression values were normalized to the housekeeping gene 36B4. Time of steroid treatment was chosen to get the optimal stimulation for a given gene. ALPL and G0S8 mRNA were analyzed after 6 h of treatment. IEX-1, FASN, and BCL2 were analyzed after 24 h of treatment. Cyclin A mRNA was analyzed after 24 h for GR responses or 48 h for PR responses.

Assay [2] has as its system human breast tissue carrying BRCA1 mutations, xenografts. The assay is described as follows: Ki67 mitotic index in BRCA1 mutated human breast tissue xenografted in nude mice. It is filed as in vivo. As to conditions: E2+P+UPA vs E2+P, lobular and ductal cells, 28 days. As for the experimental part: Mitotic index was calculated using the Ki67 antibody, and was determined for each breast tissue grafted into mice. Immunohistochemical analyses were performed using the BOND-MAX workstation (Leica, Nanterre, France). Paraffin sections of breast tissue xenografts were de-waxed and rehydrated before antigen retrieval using citrate retrieval solution (pH 6.0) for Ki67 antibody or EDTA retrieval solution (pH 9.0) for PR and ERalpha antibodies, for 30 min. Sections were then incubated with Ki67 at 1:100 (Novocastra, NCL5 L-Ki67-MM1), PR at 1:80 (Biogenex, MU-328-UC) or ER at 1:300 (Novocastra, NCL-L6 ER-6F11) monoclonal antibodies. For signal detection, the Kit Bond Polymer Refire Detection was used. Reagents were purchased from Menarini-Diagnostic (Rungis, France). A negative control (omitting the first antibody) was included in each set. For each marker, determination of the ratio of positive cells was performed on a total of 1 000 lobular and 1 000 ductal luminal cells in the 4 breast tissue fragments grafted into each mouse. For each experiment, the final percentages for each treatment were the mean of percentages obtained in the four mice per group.
Mutated breast tissue samples were obtained from 5 women (36-57 years old) carrying mutations for BRCA1.
Xenografts were performed as described above (Example 2). […]

For the next assay, the system named is T-47D cells. The assay is described as follows: Apoptosis, sub-G1 quantification by flow cytometry in T-47D cells. It is filed as cell-based, human. As to conditions: 48 h. How it is done:
as §1
After 96 h or 48 h of hormonal treatment, respectively, for HBE or MCF-7 and T-47D cells, cells were washed in PBS, matrix dissociated with accutase enzyme (PAA laboratory, Les Mureaux, France), and centrifuged 5 minutes at 1350 rpm. Cells were fixed and frozen at −20° C. in 70% ethanol. Before analysis, cells were washed in PBS and stained with 10 μg/ml propidium iodide in PBS (containing 0.835 U/ml RNase A) (Sigma, St Quentin Fallavier, France). For each sample at least 10 000 cells were counted in a BD LSR II flow cytometer (BD Biosciences, Le Pont de Claix, France). After gating out doublets and debris, cycle distribution was analyzed using the ModFit LT software (Verity Software House, USA).

In assay [3] the test system is GR target genes (IEX-1, G0S8, cyclin A, BCL2). The assay is described as follows: qRT-PCR mRNA expression of GR target genes in HBE cells. It is filed as cell-based, human. As for the experimental part: as §1, §2, §3
The next assay has as its system HBCx-34 tumors. As to the kind of experiment: HBCx-34 human mammary ductal carcinoma xenograft tumor growth in nude mice. Format: in vivo. As to conditions: UPA 130 mg/kg p.o., 42 days. From the text:
The xenograft model used in this study was HBCx-34. HBCx-34 is a mammary ductal carcinoma with wild type P53, no HER2 overexpression and PR and ERα overexpression. […] HBCx-34 has got no cachectic property.
HBCx-34 tumors (P14.0.0/2) were transplanted subcutaneously onto 5-10 mice (donor mice, passage (n-1), female athymic nude mice (Hsd:Athymic Nude-Fox1nu), 6- to 9-week-old, Harlan Laboratories (Gannat, France)). When these tumors reached 1000 to 2000 mm3 (between 60 to 78 days), donor mice were sacrificed by cervical dislocation, tumors were aseptically excised and dissected. After removing necrotic areas, tumors were cut into fragments measuring approximately 20 mm3 and transferred for 10 min maximum in sterile DMEM/F12 culture medium, without any additional components, before grafting.
Healthy mice aged 6 to 9 weeks and weighing at least 20 g were included in the study. Mice were anaesthetized with ketamine/xylazine, and then skin was aseptized with a chlorhexidine solution, incised at the level of the interscapular region, and a 20 mm3 tumor fragment was placed in the subcutaneous tissue. Skin was closed with clips.
Mice were allocated to different groups according to their tumor volume to give homogenous mean and median tumor volume in each treatment arms. Ten mice/group, with HBCx-34 tumors between 75 and 144 mm^3, were randomized according to their tumor volume into experimental groups, and treatments (UPA 130 mg/kg, p.o. or control vehicle) were initiated 33 days post implantation of the tumor for a total duration of 42 days.
Tumor volume was evaluated biweekly during all the experimental period. Tumors were collected at the end of treatment, weight and processed for analysis.

[4] abbreviates: P and/or UPA 100 nM, E2 10 nM, 24 h.

Regarding `CC(=O)O[C@]1(C(C)=O)CCC2C3CCC4=CC(=O)CCC4=C3[C@@H](c3ccc(N(C)C)cc3)C[C@@]21C` (stereo partly drawn) [UPA, 17[…]-acetoxy-11[…]-[4-N,N-dimethylamino-phenyl)-19-norpregna-4,9-diene-3,20-dione], in assay [1] (setting [4]), the “BCL2 mRNA expression (PR response)” value was “did not reverse BCL2 mRNA down-regulation induced by P” and the “FASN mRNA expression” value is reported as “able to prevent P induction of FASN mRNA expression”. Besides, the “cyclin A mRNA expression (PR response)” value in assay [1] (P and/or UPA 100 nM, E2 10 nM, 48 h) is recorded as “reversed P-induced cyclin A mRNA down-regulation”. Besides, in assay [1] (UPA 100 nM alone), the “PR agonist activity on PR target genes” value was “did not display any PR agonist activity”. In addition, the “proliferation (Ki67 mitotic index) stimulated by E2+P” value in assay [2] is listed as “exhibited antiproliferative activity”. For the same compound, the “cell apoptosis (sub-G1 percentage), compound alone” value in the assay with T-47D cells (100 nM) is on record as “had no apoptotic or survival properties by itself”. The “effect of UPA on P-mediated apoptosis” value with T-47D cells (P 100 nM + UPA 100 nM) is “tended to inhibit this effect”. The “G0S8 mRNA expression” value in assay [3] (DEX and/or UPA 100 nM, 6 h) is “slight and non-significant antagonist effect”. For the same compound, in assay [3] (DEX and/or UPA 100 nM, 24 h), the “BCL2 mRNA expression (GR response)” value is recorded as “did not reverse the DEX down-regulation of BCL2 mRNA”, the “IEX-1 mRNA expression” value is “did not antagonize this response” and the “cyclin A mRNA expression (GR response)” value is “partially inhibited DEX effect on cyclin A mRNA expression”. The “glucocorticoid agonist activity on GR target genes” value in assay [3] (UPA 100 nM alone) is given as “did not display any glucocorticoid agonist activity”. Besides, the “ratio of TV in treated vs. control group (T/C)” value with HBCx-34 tumors is on record as 53%. Further, the “increase in mean tumor volume (TV) at the end of treatment” value with HBCx-34 tumors (control 4.63-fold) is on record as 2.17 fold. For the same compound, the “mean TV at sacrifice” value with HBCx-34 tumors (control 625.0±108.6 mm^3) is recorded as 332.0±61.0 mm^3.
